The record followed here is patent publication US20230103554A1, “TNFa SIGNALING [sequence] TUMOR-PROMOTING INFLAMMATION THAT CAN BE TARGETED TO THERAPY” (Baylor College of Medicine, priority 2020, published 2023).

Holding throughout (format): cell-based, human
The subject of experiment [1] is cytokines/chemokines in CHLA-255-monocyte co-cultures. Kind of experiment: Multiplex Luminex cytokine array on co-culture supernatants. The conditions noted are these: CHLA-255 + monocytes, 10 μg/mL etanercept, 24 hours.
For another experiment, the system named is CHLA-255-luc. Nature of the experiment: NB luminescence growth/viability in monocyte co-culture. The settings on record: 10 μg/mL etanercept. The method, then:
(§1) (FIG. 8A) Luciferase expressing CHLA-255-luc and SK-NAS-luc were cultured in 1-16,000 pg/mL rhTNF for 48 hours and viability of the cells was measured by luminescence. Data was normalized to untreated control and graphed as % Viability versus Log10 of TNF concentration.
(§2) (15A) TNFα level within co-culture supernatant was determined by TNFα ELISA. Mean TNFα concentration±SD of representative data from two monocyte donors run in triplicate. (FIG. 15B) Supernatant IL-6 levels were determined by ELISA. Mean IL-6 concentration±SD of representative data from two monocyte donors run in triplicate (FIG. 15C) Intracellular IκBα expression level within CD14+GD2− monocyte population was determined by flow cytometry and IκBα MFI was normalized to monocyte only control. Mean normalized IκBα MFI±SD and representative from experiments with two monocyte donors run in triplicate. (FIG. 15D) Intracellular IκBα expression level within CD14-GD2+NB population was determined by flow cytometry and IκBα MFI was normalized to NB only control. Mean normalized IκBαMFI±SD, representative from experiments with two monocyte donors run in triplicate. (FIG. 15E) Multiplex Luminex cytokine assay was performed on co-culture supernatants. […] NB luminescence was used to evaluate relative viability of cell line. Results are normalized mean luminescence±SD, n=6 replicates per condition. […] Cells undergoing multiple (2+) divisions were quantified as a percentage of total cells and normalized to NB (0) and Ctrl (1). […]
Monocytes were directly cultured with wild-type or TNF, TNFR1, TNFR2 KO NB cell lines in ULA plates for 24 hours. Activation of NF-kB in monocytes and NB was measured by flow cytometry and cytokine production measured by ELISA from co-culture supernatant. To evaluate the contact-dependence of monocyte activation by NB, monocytes were cultured in ULA plates with seven-day NB conditioned medium mixed 1:1 with complete monocyte medium for 24 hours and analyzed for IL-6 production. […] Luminescence was measured using a TECAN Spark plate reader (TECAN). […] CellTrace Violet expression was analyzed by flow cytometry.

A further experiment concerns SK-N-AS-luc. Nature of the experiment: NB luminescence viability in monocyte co-culture. The settings on record: SK-N-AS-luc + monocytes, 10 μg/mL etanercept, 72 hours (FIG. 8B). The method, then: as §1
Monocytes were directly cultured with wild-type or TNF, TNFR1, TNFR2 KO NB cell lines in ULA plates for 24 hours. Activation of NF-kB in monocytes and NB was measured by flow cytometry and cytokine production measured by ELISA from co-culture supernatant. To evaluate the contact-dependence of monocyte activation by NB, monocytes were cultured in ULA plates with seven-day NB conditioned medium mixed 1:1 with complete monocyte medium for 24 hours and analyzed for IL-6 production. […] Luminescence was measured using a TECAN Spark plate reader (TECAN). To evaluate changes in proliferation, NB was pulsed for 10 minutes in CellTrace Violet (2 μM, Invitrogen) and seeded at 100,000 cells per well in a 12-well tissue culture-treated plate. Monocytes were added directly to the NB monolayer at a density of 100,000 per well and incubated for four days. CellTrace Violet expression was analyzed by flow cytometry.

The next experiment has as its system CHLA-255. Kind of experiment: CellTrace Violet proliferation of NB co-cultured with monocytes. The settings on record: CHLA-255 CTV-pulsed + monocytes, 10 μg/mL etanercept, four days. The method, then: as §2, with “control.” for “control. Mean normalized IκBαMFI±SD, representative from experiments with two monocyte donors run in triplicate. (FIG. 15E) Multiplex Luminex cytokine assay was performed on co-culture supernatants.”
Monocytes were directly cultured with wild-type or TNF, TNFR1, TNFR2 KO NB cell lines in ULA plates for 24 hours. Activation of NF-kB in monocytes and NB was measured by flow cytometry and cytokine production measured by ELISA from co-culture supernatant. […] Luminescence was measured using a TECAN Spark plate reader (TECAN). […]

Consider etanercept, for which the “induction/upregulation of G-CSF, GM-CSF, IL-1α, IL-1β, IL-6, IL-10, IL-12-p40, IP-10, MIP-1β” value in experiment [1] was “completely reversed the induction/upregulation of all nine cytokines/chemokines”. In the experiment with CHLA-255-luc (CHLA-255-luc + monocytes, 72 hours (FIG. 8B)), the “monocyte-induced proliferation above baseline (luminescence)” value is recorded as “reduces this”. Moreover, the “NB luminescence (growth/viability) increase induced by monocytes” value in the experiment on CHLA-255-luc (CHLA-255-luc + monocytes, 72 hours, vs IgG control (FIG. 15F)) is “completely abrogated the effect of monocytes on NB cells”. The “effect of monocyte-induced TNF signaling on NB cells” value in the experiment with CHLA-255-luc (CHLA-255-luc and SK-N-AS-luc + monocytes, 72 hours (FIG. 8B)) was “reversed the effect of monocyte-induced TNF signaling on NB cells”. In addition, in the experiment on SK-N-AS-luc, the “cell death caused by monocyte-produced TNF (luminescence)” value is “rescued”. Also, the “reduction of monocyte-induced increase in NB cells undergoing multiple divisions” value in the experiment on CHLA-255 was determined as 56%.
